Where a name gives a salt, the structure may show the parent alone. Read-outs that look alike come from different tables or passages of the source.
Legend:
[1] = In Vitro Microsome Stability Assay (mouse); assay type: in vitro ADME
Method in brief: (§1)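 Species liver microsomes in potassium phosphate buffer were preincubated at 37 °C for 3–5 min with test compound (added from 0.25 mM DMSO stock), then started with NADPH. Samples at 0 and 30 min were quenched with acetonitrile containing internal standard and analysed by LC-MS/MS; % remaining at 30 min used analyte/IS AUC ratios relative to t=0.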

[2] = tested on: multiple myeloma cell line U266B1; assay: U266 Cell Viability Assay; assay type: cell-based, human; conditions: Homo sapiens, U-266, 48 hr
Method in brief: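 U266B1 myeloma cells in RPMI 1640 with 10% FBS were treated with compound dilutions for 48 h at 37° C, 5% CO2. Viability was read as CellTiter-Glo luminescence. Data for structures drawn without stereochemistry refer to stereoisomer mixtures.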

[3] = In Vitro Microsome Stability Assay (monkey); assay type: in vitro ADME
Method in brief: as §1

[4] = In Vitro Microsome Stability Assay (rat); assay type: in vitro ADME
Method in brief: as §1

[5] = In Vitro Microsome Stability Assay (human); assay type: in vitro ADME
Method in brief: as §1

[6] = tested on: PD1 signal sequence plus 10 amino acids fused to Gaussia Luciferase (PD1-ss+10aa/Gaussia Luciferase); assay: Dox Induced PD1-ss-Gluc Assay; assay type: cell-based; conditions: 24 hr, read-out: 24 hr Dox Inducible PD1ssGluc 293FRT/TO: Mean IC50
Method in brief: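 Stable Flp-In 293 T-REx line expressing the fusion under tetracycline-inducible control, plated the day before assay. Compound dilutions added with doxycycline and incubated at 37 °C, 5% CO2; unspecified stereocentres mean data refer to stereoisomer mixtures.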

[7] = tested on: full length TNFα (amino acids 1-233) fused to Gaussia Luciferase; assay: Dox Induced TNFα-FL-Gluc Assay; assay type: cell-based; conditions: 24 hr, read-out: 24 hr Dox Inducible TNFaFLGluc 293FRT/TO: Mean IC50
Method in brief: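 Stable Flp-In 293 T-REx line expressing doxycycline-inducible full-length TNFα fused to Gaussia luciferase; cells plated the day before, then treated with compound dilutions in doxycycline-containing medium at 37° C, 5% CO2. Unspecified stereocentres mean stereoisomer mixtures were tested.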

[8] = tested on: multiple myeloma cell line NCl-H929; assay: H929 Cell Viability Assay; assay type: cell-based, human; conditions: Homo sapiens, NCI-H929, 48 h
Method in brief: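 NCI-H929 myeloma cells in RPMI 1640 with 10% FBS were treated with compound dilutions for 48 h at 37 °C, and viability was then read by CellTiter-Glo luminescence. Compounds drawn without stereochemistry were tested as stereoisomer mixtures.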

[9] = U266, read-out: 48 hr U266 Viability Celltiter-Glo: Mean EC50
[10] = H929, read-out: 48 hr H929 Viability Celltiter-Glo: Mean EC50

Compound | Liver Microsome Stability-% Left after 30 min w/ NADPH (%) Mouse ([1]; mouse liver microsomes, 30 min w/ NADPH) [%] | EC50 ([2]; U266, Celltiter-Glo) [µM] | Liver Microsome Stability-% Left after 30 min w/ NADPH (%) Monkey ([3]; monkey liver microsomes, 30 min w/ NADPH) [%] | Liver Microsome Stability-% Left after 30 min w/ NADPH (%) Rat ([4]; rat liver microsomes, 30 min w/ NADPH) [%] | Liver Microsome Stability-% Left after 30 min w/ NADPH (%) Human ([5]; human liver microsomes, 30 min w/ NADPH) [%] | IC50 ([6]; Dox inducible, 293FRT/TO cells) [µM] | IC50 ([7]; Dox inducible, 293FRT/TO cells) [µM] | EC50 ([8]; H929, Celltiter-Glo) [µM] | Liver Microsome Stability-% Left after 30 min w/ NADPH (%) Mouse ([1]; mouse, 30 min, NADPH) [%] | EC50 [2, 9] [µM] | Liver Microsome Stability-% Left after 30 min w/ NADPH (%) Monkey ([3]; monkey, 30 min, NADPH) [%] | Liver Microsome Stability-% Left after 30 min w/ NADPH (%) Rat ([4]; rat, 30 min, NADPH) [%] | Liver Microsome Stability-% Left after 30 min w/ NADPH (%) Human ([5]; human, 30 min, NADPH) [%] | IC50 ([6]; 293FRT/TO) [µM] | IC50 ([7]; 293FRT/TO) [µM] | EC50 [8, 10] [µM]
CN(C)c1ccc(S(=O)(=O)N2CCCN(CC3CCCCC3)CCCN(S(=O)(=O)N3CCCCC3)CC3(CC3)C2)c(F)c1 [A40] |  |  |  |  |  |  |  |  | 0.19 | > 25 | 0.04 | 0.12 | 0.04 | 0.308 | > 15.1 | > 25
CC1CCCN(S(=O)(=O)N2CCCN(CC3CCCCC3)CCCN(S(=O)(=O)c3ccc(N(C)C)cc3)CC3(CC3)C2)C1 (centres unmarked) [A21, 4-{[9-(cyclohexylmethyl)-13-[(3-methylpiperidin-1-yl)sulfonyl]-5,9,13-triazaspiro[2.11]tetradecan-5-yl]sulfonyl}-N,N-dimethylaniline] |  |  |  |  |  |  |  |  | 1.77 | > 25 | 0.11 | 0.62 | 0.14 | 0.184 | 10 | 8.29
CN(C)c1ccc(S(=O)(=O)N2CCCN(CC3CCCCC3)CCCN(S(=O)(=O)N3CCCC3)CC3(CC3)C2)cc1 [A23, 4-{[9-(cyclohexylmethyl)-13-(pyrrolidine-1-sulfonyl)-5,9,13-triazaspiro[2.11]tetradecan-5-yl]sulfonyl}-N,N-dimethylaniline] |  |  |  |  |  |  |  |  | 0.17 | > 25 | 0.03 | 0.13 | 0.04 | 0.759 | > 25 | > 25
CN(C)c1ccc(S(=O)(=O)N2CCCN(CC3CCCCC3)CCCN(S(=O)(=O)N3CCCCC3)CC3(CC3)C2)cc1 [A19, 4-((9-(cyclohexylmethyl)-13-(piperidin-1-ylsulfonyl)-5,9,13-triazaspiro[2.11]tetradecan-5-yl)sulfonyl)-N,N-dimethylaniline hydrochloride] |  |  |  |  |  |  |  |  | 0.24 | 21.9 | 0.08 | 0.1 | 0.05 | 0.326 | > 25 | > 25
C=C1CN(S(=O)(=O)c2ccc(C)cc2)CCCN(CC2CCCCC2)CCCN(S(=O)(=O)C(C)C)C1 [A7, 9-(cyclohexylmethyl)-1-(4-methylbenzenesulfonyl)-3-methylidene-5-(propane-2-sulfonyl)-1,5,9-triazacyclododecane] |  |  |  |  |  |  |  |  | 0.17 | > 25 | 0.99 | 0.23 | 0.29 | 2.31 | > 25 | 22.4

Further lines, results first:

Liver Microsome Stability-% Left after 30 min w/ NADPH (%) Mouse ([1]; mouse liver microsomes, 30 min w/ NADPH) [%] | EC50 ([2]; U266, Celltiter-Glo) [µM] | Liver Microsome Stability-% Left after 30 min w/ NADPH (%) Monkey ([3]; monkey liver microsomes, 30 min w/ NADPH) [%] | Liver Microsome Stability-% Left after 30 min w/ NADPH (%) Rat ([4]; rat liver microsomes, 30 min w/ NADPH) [%] | Liver Microsome Stability-% Left after 30 min w/ NADPH (%) Human ([5]; human liver microsomes, 30 min w/ NADPH) [%] | IC50 ([6]; Dox inducible, 293FRT/TO cells) [µM] | IC50 ([7]; Dox inducible, 293FRT/TO cells) [µM] | EC50 ([8]; H929, Celltiter-Glo) [µM] | Liver Microsome Stability-% Left after 30 min w/ NADPH (%) Mouse ([1]; mouse, 30 min, NADPH) [%] | EC50 [2, 9] [µM] | Liver Microsome Stability-% Left after 30 min w/ NADPH (%) Monkey ([3]; monkey, 30 min, NADPH) [%] | Liver Microsome Stability-% Left after 30 min w/ NADPH (%) Rat ([4]; rat, 30 min, NADPH) [%] | Liver Microsome Stability-% Left after 30 min w/ NADPH (%) Human ([5]; human, 30 min, NADPH) [%] | IC50 ([6]; 293FRT/TO) [µM] | IC50 ([7]; 293FRT/TO) [µM] | EC50 [8, 10] [µM] | Compound
13.5 | > 25 | 0.98 | 15.7 | 9.46 | 0.221 | 15.4 | > 25 |  |  |  |  |  |  |  |  | C=C1CN(S(=O)(=O)c2ccc(N(C)C)cc2)C(C)CCN(CC2CCCCC2)CCCN(S(=O)(=O)N2CCC(c3ccccc3)CC2)C1 (centres unmarked) [B19, 4-{[5-(cyclohexylmethyl)-2-methyl-11-methylidene-9-[(4-phenylpiperidin-1-yl)sulfonyl]-1,5,9-triazacyclododecan-1-yl]sulfonyl}-N,N-dimethylaniline]
 |  |  |  |  |  |  |  | 17.9 | > 25 | 8.96 | 19.6 | 13.3 | 0.956 | > 25 | > 25 | COC1CN(S(=O)(=O)c2ccc(N(C)C)cc2)CCCN(CC2CCCCC2)CCCN(S(=O)(=O)N2CCC(c3ccccc3)CC2)C1 (centres unmarked) [A61, 4-{[9-(cyclohexylmethyl)-3-methoxy-5-[(4-phenylpiperidin-1-yl)sulfonyl]-1,5,9-triazacyclododecan-1-yl]sulfonyl}-N,N-dimethylaniline]
 |  |  |  |  |  |  |  | 29.3 | > 25 | 38.3 | 40.1 | 31 | 0.0456 | 1.04 | 2.11 | C=C1CN(S(=O)(=O)c2ccc(N(C)C)cc2)CCCN(CC2CCCCC2)CCCN(S(=O)(=O)N2CCc3ccc(Cl)cc3C2)C1 [A52, 4-({5-[(7-chloro-1,2,3,4-tetrahydroisoquinolin-2-yl)sulfonyl]-9-(cyclohexylmethyl)-3-methylidene-1,5,9-triazacyclododecan-1-yl}sulfonyl)-N,N-dimethylaniline]
 |  |  |  |  |  |  |  | 16.3 | > 25 | 25.4 | 71.5 | 18.2 | 0.0373 | 1.86 | 3.47 | C=C1CN(S(=O)(=O)c2ccc(N(C)C)cc2)CCCN(CC2CCCCC2)CCCN(S(=O)(=O)N2CC=C(c3ccccc3Cl)CC2)C1 [A73, 4-[(5-{[4-(2-chlorophenyl)-1,2,3,6-tetrahydropyridin-1-yl]sulfonyl}-9-(cyclohexylmethyl)-3-methylidene-1,5,9-triazacyclododecan-1-yl)sulfonyl]-N,N-dimethylaniline]
 |  |  |  |  |  |  |  | 3.63 | > 25 | 1.44 | 4.46 | 6.12 | 0.0501 | 1.76 | 3.34 | C=C1CN(S(=O)(=O)c2ccc(N(C)C)cc2)CCCN(CC2CCCCC2)CCCN(S(=O)(=O)N2CCN(c3ccccc3)[C@H](C)C2)C1 [A46, 4-{[9-(cyclohexylmethyl)-5-{[(3 R)-3-methyl-4-phenylpiperazin-1-yl]sulfonyl}-3-methylidene-1,5,9-triazacyclododecan-1-yl]sulfonyl}-N,N-dimethylaniline]

Source: US11578055B2, “Triazacyclododecansulfonamide (“TCD”)-based protein secretion inhibitors” (KEZAR LIFE SCIENCES, priority 2018, dated 2023)
